# Literature values, collected in US20070154432A1, “Compositions and methods for hair growth” (priority 2005, published 2007).
# Tests used:
# [1] = system: 5α-alpha reductase; conditions: individually shown / studies have suggested
# [2] = 200 individual; published in the Federal Register
SMILES,inhibition of 5α-alpha reductase (in words) [1],"toxicity, irritation and allergenicity by Schwartz patch test [2]"
"CC/C=C\C/C=C\C/C=C\CCCCCCCC(=O)O [ALA, Alpha Linolenic Acid]",inhibit,
"NC(=O)NC1NC(=O)NC1=O (centres unmarked) [Allantoin, allantoin]",,"nontoxic, nonirritating and non-allergenic"
"CCCCC/C=C\C/C=C\C/C=C\CCCCC(=O)O [GLA, Gamma Linolenic Acid]",inhibit,
[Zn] [zinc],inhibits,
"CCCCC/C=C\C/C=C\CCCCCCCC(=O)O [linoleic acid, Linoleic Acid]",inhibit,
